Literature values in patent US20190015445A1, “INJECTION […] DIOXIDE AND METHOD FOR MAKING SAME” (priority 2016, published 2019).
Where two headings read alike, the source gives them in different places.

[O][Cl+][O-] [chlorine dioxide]
solubility of chlorine dioxide (at 20° C., aqueous solution): about 2.9 g/L
solubility of chlorine dioxide (at room temperature): 2900 µg/mL
